Experimental data published in PMC12261228 (ACS Pharmacology & Translational Science, 2025).
“Also recorded” adds a separate entry of the source. Like-named read-outs stand apart in the source and are kept apart here.

Assays:
[1] = tested on: HUVEC; assay: MTS cytotoxicity assay, 72 h; format: cell-based; conditions: Homo sapiens, 3-day incubation, mean ± SD
[2] = tested on: microtubules in U2OS cells; assay: Immunofluorescence of microtubule organization; format: cell-based, human; conditions: 15 h
Procedure: DMSO at appropriate dilution served as control.
Immunofluorescence microscopy on formaldehyde-fixed, Triton X-100 extracted cells (F/Tx) was performed as previously described. Extraction and fixation steps were carried out in a microtubule stabilizing buffer consisting of 0.1 M KMes, 2 mM EGTA, 2 mM MgCl2, 4% polyethylene glycol 6000, pH 6.9. Cells were fixed for 30 min in 3% formaldehyde before extraction for 4 min with 0.5% Triton X-100 at 37 °C. Mouse monoclonal antibody TU-01 (IgG1) directed to α-tubulin , in the form of hybridoma spent culture medium was diluted 1:10. The DyLight 549-conjugated antimouse antibody (Jackson Immunoresearch Laboratories, West Grove, PA, USA) was diluted 1:500. Samples were mounted in MOWIOL 4–88 (Calbiochem, San Diego, CA, USA) supplemented with 4,6-diamidino-2-phenylindole (DAPI; Sigma-Aldrich, St. Louis, MO, USA) and examined with an Olympus AX-70 Provis microscope (Olympus, Hamburg, Germany) equipped with a 60×/1.0 water objective.

[3] = tested on: HCT116; assay: MTS cytotoxicity assay, 72 h; format: cell-based; conditions: Homo sapiens, HCT-116, 72 h, read-out: IC50 HCT116
[4] = tested on: panel of cell lines
[5] = tested on: K562; assay: MTS cytotoxicity assay, 72 h; format: cell-based; conditions: Homo sapiens, K562, 72 h, read-out: IC50 K562
[6] = tested on: CCRF-CEM; assay: MTS cytotoxicity assay, 72 h; format: cell-based; conditions: Homo sapiens, CCRF-CEM, 72 h, read-out: IC50 CCRF-CEM, MTS assay, 3-day incubation, mean ± SD of 3 experiments
[7] = tested on: MRC-5; assay: MTS cytotoxicity assay, 72 h; format: cell-based; conditions: Homo sapiens, MRC5, 72 h, read-out: IC50 MRC-5
[8] = tested on: BJ; assay: MTS cytotoxicity assay, 72 h; format: cell-based; conditions: Homo sapiens, read-out: IC50 BJ
[9] = tested on: CCRF-CEM lymphoblasts; assay: FACS analysis of cell cycle, apoptosis, mitosis and polyploidy; conditions: for Mitosis: phospho-Histone (Ser10); for Apoptosis: sub-G0/G1 DNA content, % of positive cells
[10] = tested on: CEM-DNR; assay: MTS cytotoxicity assay, 72 h; format: cell-based; conditions: Homo sapiens, read-out: IC50 CEM-DNR
[11] = tested on: K562-TAX; assay: MTS cytotoxicity assay, 72 h; format: cell-based; conditions: read-out: IC50 K562-TAX
[12] = tested on: HCT116p53–/–; assay: MTS cytotoxicity assay, 72 h; format: cell-based; conditions: read-out: IC50 HCT116p53–/–
[13] = tested on: U2OS; assay: MTS cytotoxicity assay, 72 h; format: cell-based, human

Compound	IC50 [1]	effect on microtubules (in words) ([2]; 10 μM)	IC50 [3]	RI (resistance index) [4]	IC50 [5]	IC50 [6]	IC50 [7]	IC50 [8]	G0/G1 ([9]; 1×IC50, 24 h)	G2/M ([9]; 1×IC50, 24 h)	Polyploid cells ([9]; 1×IC50, 24 h)	S ([9]; 1×IC50, 24 h)	Mitosis ([9]; 1×IC50, 24 h)	Apoptosis ([9]; 1×IC50, 24 h)	G0/G1 ([9]; 5×IC50, 24 h)	Polyploid cells ([9]; 5×IC50, 24 h)	S ([9]; 5×IC50, 24 h)	Mitosis ([9]; 5×IC50, 24 h)	Apoptosis ([9]; 5×IC50, 24 h)	IC50 [12]	other results
COc1cc2c(c(OC)c1OC)-c1ccc(OC)c(=O)cc1[C@@H](NC(=O)CCC1=C3C(C)=CC(C)=[N+]3[B-](F)(F)n3c(C)cc(C)c31)CC2 [CB1]	670 ± 33 nM	completely disrupted microtubules	500 ± 32 nM	4.16	450 ± 54 nM	400 ± 18 nM	5690 ± 639 nM	8350 ± 419 nM	36.69%	38.6%	17.25%	24.71%	7.96%	5.32%	50.26%	19.14%	1.72%	17.85%	11.73%	580 ± 63 nM	SI (selectivity index) [4]: 13.66; G2/M ([9]; 5×IC50, 24 h): 48.02%; IC50 [10]: 2070 ± 212 nM; IC50 [11]: 1470 ± 361 nM
COc1cc2c(c(OC)c1OC)-c1ccc(OC)c(=O)cc1[C@@H](n1cc(CCCC3=C4C(C)=CC(C)=[N+]4[B-](F)(F)n4c(C)cc(C)c43)nn1)CC2 [CB4]	< 12.2 nM	microtubule remnants were detectable; also recorded: perinuclear bundles were observed; also recorded: disruption of microtubule organization and generation of perinuclear microtubule bundles	100 ± 4 nM	–	88 ± 13 nM	20 ± 0.9 nM	> 50000 nM	> 50000 nM	41.19%	27.75%	19.29%	31.06%	2.76%	3.04%	5.49%	23.72%	1.83%	64.43%	12.24%	120 ± 12 nM	cytotoxic activity across the cell line panel (in words) [4]: changed only slightly
COc1cc2c(c(OC)c1OC)-c1ccc(OC)c(=O)cc1[C@@H](n1cc(CCCCCCCCC3=C4C(C)=CC(C)=[N+]4[B-](F)(F)n4c(C)cc(C)c43)nn1)CC2 [CB5]	450 ± 12 nM	completely disrupted microtubules	640 ± 65 nM	2.49	500 ± 122 nM	420 ± 14 nM	> 50000 nM	> 50000 nM	11.02%	85.47%	24.32%	3.51%	42.49%	9.64%	5.27%	26.07%	0.77%	60.70%	10.96%	770 ± 63 nM	SI (selectivity index) [4]: >74.18; IC50 ([13]; Homo sapiens, U2OS, 72 h, read-out: IC50 U2OS, MTS assay, 3-day incubation, mean ± SD): < 2000 nM; IC50 ([13]; read-out: IC50 U2OS, MTS assay, 3-day incubation, mean ± SD): 1040 ± 141 nM; IC50 [10]: 1390 ± 139 nM; IC50 [11]: 900 ± 26 nM
COc1cc(C2=C3C(C)=CC(C)=[N+]3[B-](F)(F)n3c(C)cc(C)c32)ccc1OCc1cn([C@H]2CCc3cc(OC)c(OC)c(OC)c3-c3ccc(OC)c(=O)cc32)nn1 [CB6]	< 12.2 nM	microtubule remnants were detectable	430 ± 32.5 nM	–	26 ± 1 nM	140 ± 10 nM	> 50000 nM	> 50000 nM	12.32%	55.58%	23.13%	32.1%	29.41%	7.55%	3.72%	24.76%	1.88%	61.11%	14.32%	380 ± 57 nM	cytotoxic activity across the cell line panel (in words) [4]: changed only slightly
COc1cc2c(c(OC)c1OC)-c1ccc(OC)c(=O)cc1[C@@H](NC(C)=O)CC2 [Col, colchicine, reference compound]	–	–	–	–	–	–	–	–	2.61%	80.55%	14.45%	16.84%	58.35%	13.67%	4.73%	14.73%	24.71%	64.48%	11.47%	–	effect on microtubules (in words) ([2]; 0.1 μM): effectively depolymerized microtubules; G2/M ([9]; 5×IC50, 24 h): 70.57%; polyploidization in CCRF-CEM cells (in words) ([9]; both 1 × IC50 and 5 × IC50): induced polyploidization
